Assay results: patent US20240067632A1, “WEE1 Degrading Compounds and Uses Thereof” (Bristol-Myers Squibb Company, priority 2022, published 2024)
Read-outs that look alike come from different tables or passages of the source.

Columns and labels:
MKN45 cells = assay: MKN45 cell proliferation assay (Cell-Titer-Glo, 120 h); assay type: cell-based; conditions: for EC50: Homo sapiens, MKN-45, 120 h, Cell-Titer-Glo, read-out: MKN45 Cell Prolif. 120 hr (EC50); for MKN45 Cell Prolif. 120 hr (Ymin-Obs): minimal percent of DMSO control observed in the concentrations tested
Outline: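 Growth inhibition was read as blank-corrected Cell-Titer-Glo luminescence expressed as percent DMSO control after 120 h at 37 C, 400 cells/well. Compounds tested in triplicate as 10-point half-log series from 1 or 10 uM, 0.1% DMSO; four-parameter fit gave EC50, and lowest observed percent control was reported as Ymin-obs.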

WEE1 = target: T1, WEE1 (Homo sapiens, UniProt P30291+Q96SW2); assay: WEE1-ePL degradation assay (LentiX-WEE1-ePL-GSPT1-ND cells, InCELL Hunter luminescence, 4 h); assay type: cell-based; conditions: 293T-LentiX WEE1-ePL cells; for DC50: read-out: 293T-LentiX WEE1-ePL Degradation 4 hr (EC50)
T1 construct: C-terminal ePL-tagged (DiscoverX, Fremont, CA) full-length WEE1 expression construct; expressed in transfected cells; host or cells: LentiX-HEK293T (Invitrogen), lentiviral transduction; co-expressing GSPT1-GN (G576N, lacking the first 158 amino acids)
Outline: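 HEK293T cells stably expressing C-terminal ePL-tagged full-length WEE1, 2500 cells/well, treated 4 h at 37° C with a 10-point 3-fold series from 1 or 10 uM. Remaining WEE1-ePL read by InCELL Hunter luminescence after 30 min. EC50 came from a four-parameter logistic fit, with Ymax set from DMSO control.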

[1] = lower limit of the fit (0 = luciferase inhibitor, Ymax = DMSO control)
[2] = lower limit of the fit (Ymin=0 luciferase inhibitor, Ymax DMSO control)

In the case of `O=C1CC[C@H](N2Cc3cc(O[C@H]4CCN(Cc5cc(F)c6nc(C7CCOCC7)ccc6c5)C4)ccc3C2=O)C(=O)N1` [(3S)-3-(5-{[(3S)-1-{[8-fluoro-2-(oxan-4-yl)quinolin-6-yl]methyl}pyrrolidin-3-yl]oxy}-1-oxo-2,3-dihydro-1H-isoindol-2-yl)piperidine-2,6-dione], the EC50 (MKN45 cells; growth inhibition) is reported as 2.29 nM, the “MKN45 Cell Prolif. 120 hr (Ymin-Obs)” value (MKN45 cells) is reported as 8.43 and the “293T-LentiX WEE1-ePL Degradation 4 hr (Ymin)” value (WEE1; [1]) is reported as 29.02. The DC50 (WEE1) was 1.45 nM.

With `C[C@@H]1CN(Cc2ccc3nc([C@@H]4CCOC(C)(C)C4)ccc3c2)C[C@H]1Oc1ccc2c(c1)CN([C@H]1CCC(=O)NC1=O)C2=O` [(3S)-3-(5-{[(3S,4R)-1-({2-[(4R)-2,2-dimethyloxan-4-yl]quinolin-6-yl}methyl)-4-methylpyrrolidin-3-yl]oxy}-1-oxo-2,3-dihydro-1H-isoindol-2-yl)piperidine-2,6-dione] the EC50 (MKN45 cells) was 0.424 nM, the “MKN45 Cell Prolif. 120 hr (Ymin-Obs)” value (MKN45 cells) was 8.113 and the “293T-LentiX WEE1-ePL Degradation 4 hr (Ymin)” value (WEE1; [2]) was 24.64. The DC50 (WEE1) was 1.15 nM.

`C[C@@H]1CN(Cc2ccc3nc([C@H]4CCOC(C)(C)C4)ccc3c2)C[C@H]1Oc1ccc2c(c1)CN([C@H]1CCC(=O)NC1=O)C2=O` [(3S)-3-(5-{[(3S,4R)-1-({2-[(4S)-2,2-dimethyloxan-4-yl]quinolin-6-yl}methyl)-4-methylpyrrolidin-3-yl]oxy}-1-oxo-2,3-dihydro-1H-isoindol-2-yl)piperidine-2,6-dione] was tested, and the EC50 (MKN45 cells) was 1.44 nM, the “MKN45 Cell Prolif. 120 hr (Ymin-Obs)” value (MKN45 cells) was 9.434 and the “293T-LentiX WEE1-ePL Degradation 4 hr (Ymin)” value (WEE1; [2]) was 24.63. It also gave a DC50 (WEE1) of 3.51 nM.

`C[C@@H]1CN(Cc2cc(F)c3nc([C@H]4CCOC4)ccc3c2)C[C@H]1Oc1ccc2c(c1)CN([C@H]1CCC(=O)NC1=O)C2=O` [(3S)-3-(5-{[(3S,4R)-1-({8-fluoro-2-[(3R)-oxolan-3-yl]quinolin-6-yl}methyl)-4-methylpyrrolidin-3-yl]oxy}-1-oxo-2,3-dihydro-1H-isoindol-2-yl)piperidine-2,6-dione] was tested, and the EC50 (MKN45 cells) was 0.955 nM, the “MKN45 Cell Prolif. 120 hr (Ymin-Obs)” value (MKN45 cells) was 7.865 and the “293T-LentiX WEE1-ePL Degradation 4 hr (Ymin)” value (WEE1; [2]) was 26.61. It also gave a DC50 (WEE1) of 0.985 nM.

With `C[C@@H]1CN(Cc2cc(F)c3nc([C@@H]4CCOC4)ccc3c2)C[C@H]1Oc1ccc2c(c1)CN([C@H]1CCC(=O)NC1=O)C2=O` [(3S)-3-(5-{[(3S,4R)-1-({8-fluoro-2-[(3S)-oxolan-3-yl]quinolin-6-yl}methyl)-4-methylpyrrolidin-3-yl]oxy}-1-oxo-2,3-dihydro-1H-isoindol-2-yl)piperidine-2,6-dione] the EC50 (MKN45 cells) was 1.13 nM, the “MKN45 Cell Prolif. 120 hr (Ymin-Obs)” value (MKN45 cells) was 7.979 and the “293T-LentiX WEE1-ePL Degradation 4 hr (Ymin)” value (WEE1; [2]) was 26.17. For the same compound, the DC50 (WEE1) was 1.41 nM.

In the case of `C[C@@H]1CN(Cc2cc(F)c3nc(C4CCOCC4)ccc3c2)C[C@H]1Oc1ccc2c(c1)CN([C@H]1CCC(=O)NC1=O)C2=O` [(3S)-3-(5-{[(3S,4R)-1-{[8-fluoro-2-(oxan-4-yl)quinolin-6-yl]methyl}-4-methylpyrrolidin-3-yl]oxy}-1-oxo-2,3-dihydro-1H-isoindol-2-yl)piperidine-2,6-dione], the EC50 (MKN45 cells) is reported as 1.42 nM, the “MKN45 Cell Prolif. 120 hr (Ymin-Obs)” value (MKN45 cells) is reported as 9.05 and the “293T-LentiX WEE1-ePL Degradation 4 hr (Ymin)” value (WEE1; [2]) is reported as 33.52. The DC50 (WEE1) was 1.05 nM.

For `COC[C@@H]1CN(Cc2ccc3nc([C@@H]4CCOC(C)(C)C4)ccc3c2)C[C@H]1Oc1ccc2c(c1)CN([C@H]1CCC(=O)NC1=O)C2=O` [(3S)-3-(5-{[(3S,4S)-1-({2-[(4R)-2,2-dimethyloxan-4-yl]quinolin-6-yl}methyl)-4-(methoxymethyl)pyrrolidin-3-yl]oxy}-1-oxo-2,3-dihydro-1H-isoindol-2-yl)piperidine-2,6-dione], the EC50 (MKN45 cells) was 0.247 nM, the “MKN45 Cell Prolif. 120 hr (Ymin-Obs)” value (MKN45 cells) was 7.692 and the “293T-LentiX WEE1-ePL Degradation 4 hr (Ymin)” value (WEE1; [2]) was 25.48. The DC50 (WEE1) was 0.726 nM.

For `COC[C@@H]1CN(Cc2cc(F)c3nc([C@H]4CCOC(C)(C)C4)ccc3c2)C[C@H]1Oc1ccc2c(c1)CN([C@H]1CCC(=O)NC1=O)C2=O` [(3S)-3-(5-{[(3S,4S)-1-({2-[(4S)-2,2-dimethyloxan-4-yl]-8-fluoroquinolin-6-yl}methyl)-4-(methoxymethyl)pyrrolidin-3-yl]oxy}-1-oxo-2,3-dihydro-1H-isoindol-2-yl)piperidine-2,6-dione], the EC50 (MKN45 cells) was 0.638 nM, the “MKN45 Cell Prolif. 120 hr (Ymin-Obs)” value (MKN45 cells) was 8.947 and the “293T-LentiX WEE1-ePL Degradation 4 hr (Ymin)” value (WEE1; [2]) was 25.19. The DC50 (WEE1) was 1.2 nM.

`COC[C@@H]1CN(Cc2ccc3nc([C@H]4CCOC(C)(C)C4)ccc3c2)C[C@H]1Oc1ccc2c(c1)CN([C@H]1CCC(=O)NC1=O)C2=O` [(3S)-3-(5-{[(3S,4S)-1-({2-[(4S)-2,2-dimethyloxan-4-yl]quinolin-6-yl}methyl)-4-(methoxymethyl)pyrrolidin-3-yl]oxy}-1-oxo-2,3-dihydro-1H-isoindol-2-yl)piperidine-2,6-dione] was tested, and the EC50 (MKN45 cells) was 0.558 nM, the “MKN45 Cell Prolif. 120 hr (Ymin-Obs)” value (MKN45 cells) was 8.285 and the “293T-LentiX WEE1-ePL Degradation 4 hr (Ymin)” value (WEE1; [2]) was 25.45. It also gave a DC50 (WEE1) of 1.25 nM.

With `COC[C@@H]1CN(Cc2ccc3nc(C4CCN(C(C)=O)CC4)ncc3c2)C[C@H]1Oc1ccc2c(c1)CN([C@H]1CCC(=O)NC1=O)C2=O` [(3S)-3-(5-{[(3S,4S)-1-{[2-(1-acetylpiperidin-4-yl)quinazolin-6-yl]methyl}-4-(methoxymethyl)pyrrolidin-3-yl]oxy}-1-oxo-2,3-dihydro-1H-isoindol-2-yl)piperidine-2,6-dione] the EC50 (MKN45 cells) was 3.54 nM, the “MKN45 Cell Prolif. 120 hr (Ymin-Obs)” value (MKN45 cells) was 9.28 and the “293T-LentiX WEE1-ePL Degradation 4 hr (Ymin)” value (WEE1; [2]) was 26.93. It also gave a DC50 (WEE1) of 11.9 nM.

`COC[C@@H]1CN(Cc2ccc3nc(N4CCN(C(C)=O)CC4)ccc3c2)C[C@H]1Oc1ccc2c(c1)CN([C@H]1CCC(=O)NC1=O)C2=O` [(3S)-3-(5-{[(3S,4S)-1-{[2-(4-acetylpiperazin-1-yl)quinolin-6-yl]methyl}-4-(methoxymethyl)pyrrolidin-3-yl]oxy}-1-oxo-2,3-dihydro-1H-isoindol-2-yl)piperidine-2,6-dione] was tested, and the EC50 (MKN45 cells) was 1.12 nM, the “MKN45 Cell Prolif. 120 hr (Ymin-Obs)” value (MKN45 cells) was 8.785 and the “293T-LentiX WEE1-ePL Degradation 4 hr (Ymin)” value (WEE1; [2]) was 27.27. The DC50 (WEE1) was 1.41 nM.

For `COC[C@@H]1CN(Cc2ccc3nc(N4CCOCC4)ncc3c2)C[C@H]1Oc1ccc2c(c1)CN([C@H]1CCC(=O)NC1=O)C2=O` [(3S)-3-(5-{[(3S,4S)-4-(methoxymethyl)-1-{[2-(morpholin-4-yl)quinazolin-6-yl]methyl}pyrrolidin-3-yl]oxy}-1-oxo-2,3-dihydro-1H-isoindol-2-yl)piperidine-2,6-dione], the EC50 (MKN45 cells) was 1.64 nM, the “MKN45 Cell Prolif. 120 hr (Ymin-Obs)” value (MKN45 cells) was 8.574 and the “293T-LentiX WEE1-ePL Degradation 4 hr (Ymin)” value (WEE1; [2]) was 25.61. The DC50 (WEE1) was 5.4 nM.

`COC[C@@H]1CN(Cc2ccc3nc(C4CCOCC4)ncc3c2)C[C@H]1Oc1ccc2c(c1)CN([C@H]1CCC(=O)NC1=O)C2=O` [(3S)-3-(5-{[(3S,4S)-4-(methoxymethyl)-1-{[2-(oxan-4-yl)quinazolin-6-yl]methyl}pyrrolidin-3-yl]oxy}-1-oxo-2,3-dihydro-1H-isoindol-2-yl)piperidine-2,6-dione] was tested, and the EC50 (MKN45 cells) was 4.9 nM, the “MKN45 Cell Prolif. 120 hr (Ymin-Obs)” value (MKN45 cells) was 8.813 and the “293T-LentiX WEE1-ePL Degradation 4 hr (Ymin)” value (WEE1; [2]) was 23.11. It also gave a DC50 (WEE1) of 17.6 nM.

In the case of `C[C@@H]1c2cc(O[C@H]3CCN(Cc4ccc5nc(N6CCOCC6)ncc5c4)C3)ccc2C(=O)N1[C@H]1CCC(=O)NC1=O` [(3S)-3-[(3R)-3-methyl-5-{[(3S)-1-{[2-(morpholin-4-yl)quinazolin-6-yl]methyl}pyrrolidin-3-yl]oxy}-1-oxo-2,3-dihydro-1H-isoindol-2-yl]piperidine-2,6-dione], the EC50 (MKN45 cells) is reported as 30.8 nM, the “MKN45 Cell Prolif. 120 hr (Ymin-Obs)” value (MKN45 cells) is reported as 36.11 and the “293T-LentiX WEE1-ePL Degradation 4 hr (Ymin)” value (WEE1; [2]) is reported as 40.43. It also gave a DC50 (WEE1) of 4.84 nM.

`C[C@@H]1c2cc(O[C@H]3CCN(Cc4ccc5nc(C6CCOCC6)ccc5c4)C3)ccc2C(=O)N1[C@H]1CCC(=O)NC1=O` [(3S)-3-[(3R)-3-methyl-5-{[(3S)-1-{[2-(oxan-4-yl)quinolin-6-yl]methyl}pyrrolidin-3-yl]oxy}-1-oxo-2,3-dihydro-1H-isoindol-2-yl]piperidine-2,6-dione] was tested, and the EC50 (MKN45 cells) was 17.8 nM, the “MKN45 Cell Prolif. 120 hr (Ymin-Obs)” value (MKN45 cells) was 20.63 and the “293T-LentiX WEE1-ePL Degradation 4 hr (Ymin)” value (WEE1; [2]) was 42.32. It also gave a DC50 (WEE1) of 2.67 nM.

`C[C@H]1c2cc(O[C@H]3CCN(Cc4ccc5nc(C6CCOCC6)ccc5c4)C3)ccc2C(=O)N1[C@H]1CCC(=O)NC1=O` [(3S)-3-[(3S)-3-methyl-5-{[(3S)-1-{[2-(oxan-4-yl)quinolin-6-yl]methyl}pyrrolidin-3-yl]oxy}-1-oxo-2,3-dihydro-1H-isoindol-2-yl]piperidine-2,6-dione] was tested, and the EC50 (MKN45 cells) was 374 nM, the “MKN45 Cell Prolif. 120 hr (Ymin-Obs)” value (MKN45 cells) was 86.82 and the “293T-LentiX WEE1-ePL Degradation 4 hr (Ymin)” value (WEE1; [2]) was 49.25. The DC50 (WEE1) was 212 nM.

With `CN(C(=O)C1CCOCC1)c1ccc2cc(CN3CC[C@H](Oc4ccc5c(c4)CN(C4CCC(=O)NC4=O)C5=O)C3)ccc2n1` (stereo partly drawn) [N-(6-{[(3S)-3-{[2-(2,6-dioxopiperidin-3-yl)-1-oxo-2,3-dihydro-1H-isoindol-5-yl]oxy}pyrrolidin-1-yl]methyl}quinolin-2-yl)-N-methyloxane-4-carboxamide] the EC50 (MKN45 cells; growth inhibition) was 3.35 nM, the “MKN45 Cell Prolif. 120 hr (Ymin-Obs)” value (MKN45 cells) was 6.6 and the “293T-LentiX WEE1-ePL Degradation 4 hr (Ymin)” value (WEE1; [1]) was 32.5. It also gave a DC50 (WEE1) of 5.04 nM.
